Laboratory results as given in ChEMBL document CHEMBL3045497, “An analogue of piperonyl butoxide facilitates the characterisation of metabolic resistance” (Pest Manag Sci, 2009).
≈ marks a conversion by molar mass, not a printed value. Calls of active or inactive are those of the source. The rule behind the calls is not given here.

Assays:
[1] = system: Bemisia tabaci; test: Resistant factor, ratio of LC50 for […] (sweet potato whitefly) in presence of EN 16/5-1; format: functional
[2] = system: Bemisia tabaci; test: Insecticidal activity against drug-resistant Bemisia tabaci GUAMIX (sweet potato whitefly) in cotton plant leaf assessed as mortality after 48 hr; format: functional
[3] = system: Bemisia tabaci; test: Resistant factor, ratio of LC50 for drug-susceptible Bemisia tabaci SUD-S (sweet potato whitefly) to LC50 for drug-resistant Bemisia tabaci GUAMIX (sweet potato whitefly); format: functional
[4] = system: Bemisia tabaci; test: Resistant factor, ratio of LC50 for […] (sweet potato whitefly) in presence of PBO; format: functional
[5] = system: Bemisia tabaci; test: Insecticidal activity against drug-resistant Bemisia tabaci GUAMIX (sweet potato whitefly) in cotton plant leaf assessed as mortality after 48 hr in presence of PBO pretreated 5 hr before compound challenge; format: functional
[6] = system: Bemisia tabaci; test: Insecticidal activity against drug-susceptible Bemisia tabaci SUD-S (sweet potato whitefly) in cotton plant leaf assessed as mortality after 48 hr; format: functional
[7] = system: Bemisia tabaci; test: Insecticidal activity against drug-susceptible Bemisia tabaci SUD-S (sweet potato whitefly) in cotton plant leaf assessed as mortality after 48 hr in presence of EN 16/5-1 pretreated 5 hr before compound challenge; format: functional
[8] = system: Bemisia tabaci; test: Insecticidal activity against drug-resistant Bemisia tabaci GUAMIX (sweet potato whitefly) in cotton plant leaf assessed as mortality after 48 hr in presence of EN 16/5-1 pretreated 5 hr before compound challenge; format: functional
[9] = system: Bemisia tabaci; test: Insecticidal activity against drug-susceptible Bemisia tabaci SUD-S (sweet potato whitefly) in cotton plant leaf assessed as mortality after 48 hr in presence of PBO pretreated 5 hr before compound challenge; format: functional
[10] = system: Bemisia tabaci; test: Reversible inhibition of B-type Bemisia tabaci (sweet potato whitefly) esterase using 1-naphthyl butyrate as substrate after 10 to 120 min
[11] = system: Bemisia tabaci; test: Inhibition of B-type Bemisia tabaci (sweet potato whitefly) oxidase-mediated O-deethylation using 285 uM of 7-ethoxycoumarin as substrate assessed as residual activity after 120 min relative to control
[12] = Inhibition of B-type Bemisia tabaci (sweet potato whitefly) esterase using 500 uM of 1-naphthyl butyrate as substrate after 10 min
[13] = system: Bemisia tabaci; test: Inhibition of B-type Bemisia tabaci (sweet potato whitefly) oxidase-mediated O-deethylation using 18 uM of 7-ethoxycoumarin as substrate assessed as residual activity after 10 min relative to control
[14] = system: Bemisia tabaci; test: Inhibition of B-type Bemisia tabaci (sweet potato whitefly) oxidase-mediated O-deethylation using 285 uM of 7-ethoxycoumarin as substrate assessed as residual activity after 10 min relative to control
[15] = Inhibition of B-type Bemisia tabaci (sweet potato whitefly) esterase using 31.25 uM of 1-naphthyl butyrate as substrate after 120 min
[16] = Inhibition of B-type Bemisia tabaci (sweet potato whitefly) esterase using 500 uM of 1-naphthyl butyrate as substrate after 120 min
[17] = system: Bemisia tabaci; test: Non-competitive inhibition of B-type Bemisia tabaci (sweet potato whitefly) esterase using 1-naphthyl butyrate as substrate after 10 to 120 min

| Compound | RatioLC50 [1] | LC50 [2] [µg/mL] | RatioLC50 [3] | RatioLC50 [4] | LC50 [5] [µg/mL] | LC50 [6] [µg/mL] | LC50 [7] [µg/mL] | LC50 [8] [µg/mL] | LC50 [9] [µg/mL] | inhibition [10] | Activity [11] [%] | IC50 [12] [µM] | Activity [13] [%] | Activity [14] [%] | IC50 [15] [µM] | IC50 [16] [µM] | inhibition [17] |
| --- | --- | --- | --- | --- | --- | --- | --- | --- | --- | --- | --- | --- | --- | --- | --- | --- | --- |
| O=[N+]([O-])/N=C1\NCCN1Cc1ccc(Cl)nc1 [IMIDACLOPRID] | 900 | > 1000 | >670 | 65.5 | 32.1 | 1.49 (≈ 5.83 µM) | 0.94 | 847 | 0.49 |  |  |  |  |  |  |  |  |
| CCCCOCCOCCOCc1cc2c(cc1CCC)OCO2 [PIPERONYL BUTOXIDE] |  |  |  |  |  |  |  |  |  | Active | 27 | 4.7 | 16 | 24 | 5.4 | 5.1 | Active |
| CCCCOCCOCCOCc1cc2c(cc1CCC)CCO2 |  |  |  |  |  |  |  |  |  | Active | 82 | 6.5 | 42 | 78 | 4.8 | 5.4 | Active |
